According to publication PMC11577759, “The structure of lipopeptides impacts their antiviral activity and mode of action against SARS-CoV-2 in vitro” (Applied and Environmental Microbiology, 2024):
≈ marks a conversion by molar mass, not a printed value. Entries after “also recorded” stand apart in the source; their conditions may differ. Where two headings read alike, the source gives them in different places. Starred links: 1 amine or outer side, 2 acyl side, 3 side chain; linkers in the order of their positions; H or OH if unused. Positions of bridges follow the written chain, without caps; N, C: chain ends. Non-standard residues stand in square brackets, D forms with d. Residues, ends and D or L forms follow the SMILES beside them. *: point of attachment. X1 = CC(C)CCCCCCCCC[C@H](CC(=O)[*:1])O[*:2]; d(aThr) = C[C@@H](O)[C@@H](N)C(=O)O; X2 = CCCCCCCCCCCC(O)CC(=O)*

How the values were obtained:
[1] = Cytotoxicity, CyQUANT XTT cell viability assay; assay type: cell-based, Chlorocebus sp.; settings: Chlorocebus sp. (African green monkey), Vero E6 cells; for IC50 at 72 h: Vero E6 cells (kidney epithelial cells), XTT, mean (standard deviation), fengycin and caspofungin determined at higher concentrations in a subsequent experiment, read-out: IC50 (half maximal inhibitory concentration, cytotoxicity); for viability at 72 h: surfactin 35, WLIP 20, fengycin 50, caspofungin 100 µg/mL, Vero E6 (Fig. 5)
Procedure: (§1) Chlorocebus sp. kidney epithelial cells (Vero E6; ATCC VERO C1008) were cultured in Dulbecco’s Modified Eagle medium (DMEM) High Glucose w/ Stable Glutamine w/ Sodium Pyruvate (VWR, USA) supplemented with 2% (vol/vol) of decomplemented fetal bovine serum (FBS, Biowest, France) and 1% (vol/vol) Penicillin-Streptomycin (VWR, USA). The cells were grown at 37°C in a humidified 5% CO2 atmosphere. Cells were routinely passaged when they reached 100% confluence and were passaged until passage 15.
(§2) The cytotoxic activity of the lipopeptides was assessed using a CyQUANT XTT Cell Viability Assay (Thermo Fisher Scientific) according to the manufacturer’s instructions. […] The cells were then incubated for 72 h at 37°C. The kit was then used following the manufacturer’s instructions, and the plates were read at 450 nm and 660 nm using a Multiskan GO Microplate Spectrophotometer (Thermo Fisher Scientific). The percentage of viable cells was calculated as (AT450 − AT660 − AB450) / (AC450 − AC660) × 100%, where AT450, AT660, AB450, AC450, and AC660 represent the absorbance of the tested well at 450 nm, of the tested well at 660 nm, of the blank (only medium) at 450 nm, of the control cells at 450 nm, and of the control cells at 660 nm, respectively. One hundred percent viability corresponds to the viability of uninfected cells. DMSO concentrations ranging from 0.5% (vol/vol) to 0.001% (vol/vol) were used as a negative control for the assay. Every sample was tested in triplicate.

SARS-CoV-2 [2] = test: Replication / antiviral assay, viral RNA in supernatant by RT-qPCR; assay type: cell-based; settings: for EC50 / EC50 (half maximal effective concentration): mean (standard deviation); for EC50: read-out: EC50 (half maximal effective concentration); for Viral RNA concentration per milliliter: surfactin 35, WLIP 20, caspofungin 100 µg/mL; for Reduction of viral RNA concentration / Reduction in viral RNA: surfactin 35, WLIP 20, fengycin 50, caspofungin 100 µg/mL; for Reduction in viral RNA: 72 h (Fig. 5)
Vero E6 cells = test: Cytotoxicity, CyQUANT XTT cell viability assay; assay type: cell-based, Chlorocebus sp.; settings: for Cytotoxicity: concentrations up to 100 µg/mL, Vero E6, 72 h; for IC50 (half maximal inhibitory concentration, cytotoxicity): Vero E6 cells, 72 h, XTT, mean (standard deviation), fengycin and caspofungin determined at higher concentrations in a subsequent experiment
Procedure: as §1, §2

SARS-CoV-2 [3] = test: Binding inhibition: pre-treatment of SARS-CoV-2 and incubation on cells; assay type: cell-based; settings: virus pre-treated, surfactin 35, WLIP 20, fengycin 50, caspofungin 100 µg/mL
SARS-CoV-2 [4] = assay type: cell-based; settings: cells pre-treated, surfactin 35, WLIP 20, fengycin 50, caspofungin 100 µg/mL
SARS-CoV-2 [5] = settings: surfactin 35, WLIP 20, fengycin 50, caspofungin 100 µg/mL; 100% = untreated infected cells at 37°C
Procedure: To determine the impact of lipopeptides on the fusion step, intracellular viral RNA was quantified after infection of cells with SARS-CoV-2 but before the budding step. […] The cells were pre-chilled for 15 min on ice. The cells were infected with SARS-CoV-2 (MOI of 10) in DMEM + 2% FBS and incubated for 2 h on ice with gentle agitation. The inoculum was removed, and the cells were gently washed three times with ice-cold DPBS. The positive control was inactivated to determine the basal viral RNA concentration after binding of the virus. The lipopeptides were added to room temperature DMEM + 2% (vol/vol) FBS and incubated at 37°C for 7 h. […] The cells were rinsed with DPBS, and the wells were dried. The samples were inactivated for 30 min at 70°C before quantification of the viral RNA by RT-qPCR. Every sample was tested in triplicate.

Vero cells = tested on: Vero cells; design: method as in earlier work; settings: ref 38 (Shekunov et al.); cited from earlier work
SARS-CoV-2 [6] = test: Direct antiviral assay by viral titration (TCID50); settings: 1 h incubation with virus, vs virus alone
SARS-CoV-2 [7] = tested on: SARS-CoV-2; design: method as in doi:10.3390/applmicrobiol2030052; settings: 1 mg/mL, Vero E6 cells; cited from earlier work
SARS-CoV-2 [8] = test: Budding inhibition assay; assay type: cell-based; settings: 10 h pi, surfactin 35 µg/mL
Procedure: Fresh medium was added to the cells, and the plates were incubated for 5 h at 37°C. The supernatant was discarded, and lipopeptides were added to the cells. A sample of cell supernatant was taken every hour for 4 h. After infection, the control was kept at 4°C to inhibit the release of virions, and act as a positive control of the experiment. […] Every sample was tested in triplicate.

[9] = 100 µg/mL, 72 h pi, compared to untreated infected cells
[10] = 24 h pi, serum diluted five times
[11] = 72 h pi, serum diluted five times, […]
[12] = Severe acute respiratory syndrome coronavirus 2, Vero C1008, 72 h, […]
[13] = SARS-CoV-2 MOI 0.01, Vero E6, viral RNA at 72 h pi by RT-qPCR

Molecule	IC50 at 72 h [1]	Maximal RNA reduction at 100 µg/mL (SARS-CoV-2 [2]; [9])	viability at 72 h [1]	Cytotoxicity (Vero E6 cells)	Binding percentage of SARS-CoV-2 to cells (SARS-CoV-2 [3])	Binding percentage of SARS-CoV-2 to cells (SARS-CoV-2 [4])	Maximal RNA reduction at 100 µg/mL (SARS-CoV-2 [2])	Viral RNA concentration per milliliter (SARS-CoV-2 [2]; [10])	Viral RNA concentration per milliliter (SARS-CoV-2 [2]; 72 h pi)	Reduction of viral RNA concentration (SARS-CoV-2 [2]; [11])	EC50 (SARS-CoV-2 [2]; [12])	Reduction in viral RNA (SARS-CoV-2 [2])	Fusion percentage (SARS-CoV-2 [5])	IC50 (Vero cells)	IC50 (half maximal inhibitory concentration, cytotoxicity) (Vero E6 cells)	EC50 (half maximal effective concentration) (SARS-CoV-2 [2]; [13])	further results
CCC(=O)CCCCC[C@@H]1NC(=O)[C@H]2CCCCN2C(=O)[C@H]([C@@H](C)CC)NC(=O)[C@H](Cc2cn(OC)c3ccccc23)NC1=O [Apicidin]	0.7 µg/mL (≈ 1.12 µM)	3.7-log	–	–	–	–	–	–	–	–	–	–	–	–	–	–	EC50 (SARS-CoV-2 [2]; Severe acute respiratory syndrome coronavirus 2, Vero C1008, SARS-CoV-2 MOI 0.01, Vero E6, viral RNA at 72 h pi by RT-qPCR): 25.2 µg/mL (≈ 40.4 µM)
CC[C@H](C)C[C@H](C)CCCCCCCCC(=O)N[C@H]1C[C@@H](O)[C@@H](NCCN)NC(=O)[C@@H]2[C@@H](O)CCN2C(=O)[C@H]([C@H](O)CCN)NC(=O)[C@H]([C@H](O)[C@@H](O)c2ccc(O)cc2)NC(=O)[C@@H]2C[C@@H](O)CN2C(=O)[C@H]([C@@H](C)O)NC1=O [Caspofungin, reference compound]	129 µg/mL (≈ 118 µM)	–	96.9%	did not cause any cytotoxicity; also recorded: without any apparent cytotoxicity	did not show any effect on the binding percentage	81%	3.7-log	7.9 × 10^2 RNA concentration per milliliter	1.8 × 10^4 RNA concentration per milliliter	2.1 log	140 µg/mL (≈ 128 µM)	2.4 log	51.4%	–	–	–	Maximal RNA reduction at 100 µg/mL (SARS-CoV-2 [2]; listed as caspofungin): 3.7 log
CCCCCCCCCC(=O)N[C@@H](Cc1c[nH]c2ccccc12)C(=O)N[C@H](CC(N)=O)C(=O)N[C@@H](CC(=O)O)C(=O)N[C@@H]1C(=O)NCC(=O)N[C@@H](CCCN)C(=O)N[C@@H](CC(=O)O)C(=O)N[C@H](C)C(=O)N[C@@H](CC(=O)O)C(=O)NCC(=O)N[C@H](CO)C(=O)N[C@@H]([C@H](C)CC(=O)O)C(=O)N[C@@H](CC(=O)c2ccccc2N)C(=O)O[C@@H]1C [Daptomycin, reference compound]	> 100 µg/mL	–	–	did not cause any cytotoxicity	–	–	0.3-log	–	–	–	> 100 µg/mL	–	–	0.7 µg/mL (≈ 0.432 µM)	–	–	Maximal RNA reduction at 100 µg/mL (SARS-CoV-2 [2]; listed as daptomycin): no effect
CCCCCCCCCCCC(O)CC(=O)N[C@@H](CC(C)C)C(=O)N[C@H](CCC(=O)O)C(=O)N[C@H]1C(=O)N[C@H](C(C)C)C(=O)N[C@@H](CC(C)C)C(=O)N[C@H](CO)C(=O)N[C@@H](CC(C)C)C(=O)N[C@@H](CC(C)C)C(=O)N[C@H](CO)C(=O)N[C@@H](C(C)C)C(=O)O[C@@H]1C (some centres unmarked) [Orfamide B] (X2-L[dE][d(aThr)][dV]L[dS]LL[dS]V; ester 3-C)	–	6.3-log	–	–	–	–	–	–	–	–	–	–	–	–	14.6 (0.4) µg/mL	12.8 (4.1) µg/mL	Maximal RNA reduction at 100 µg/mL (SARS-CoV-2 [2]; 100 µg/mL, 72 h pi, compared to untreated infected cells, listed as orfamide B): 6.3 log
CC(C)CCCCCCCCC[C@@H]1CC(=O)N[C@@H](CCC(=O)O)C(=O)N[C@@H](CC(C)C)C(=O)N[C@H](CC(C)C)C(=O)N[C@@H](C(C)C)C(=O)N[C@@H](CC(=O)O)C(=O)N[C@H](CC(C)C)C(=O)N[C@@H](CC(C)C)C(=O)O1 [Surfactin] (EL[dL]VD[dL]L; linker N-C via X1)	51.5 µg/mL (≈ 49.7 µM)	–	98.5%	–	34.7%	10.0%	6.3-log	2.5 × 10^2 RNA concentration per milliliter	5.7 × 10^1 RNA concentration per milliliter	4.6 log	50 µg/mL (≈ 48.2 µM)	2.9 log	10.4%	0.6 µg/mL (≈ 0.579 µM)	–	–	viability at 72 h, 45 µg/mL ([1]; 45 µg/mL): ~0%; Viral RNA (SARS-CoV-2 [2]; 45 µg/mL): no viral RNA was detected; SARS-CoV-2 RNA concentration (SARS-CoV-2 [2]; 100 µg/mL, at every timepoint (24, 48, 72 h)): non-detectable levels; Reduction of viral RNA concentration (SARS-CoV-2 [2]; 24 h pi, serum diluted five times, […]): 1.1 log; Maximal RNA reduction at 100 µg/mL (SARS-CoV-2 [2]; listed as surfactin): 6.3 log; Reduction in viral titer (direct effect) (SARS-CoV-2 [6]; 100 µg/mL): 1.6 log; Reduction in viral titer (direct effect) (SARS-CoV-2 [6]; surfactin 35, WLIP 20, fengycin 50, caspofungin 100 µg/mL, serum diluted five times): did not directly inactivate SARS-CoV-2; SARS-CoV-2 infectivity (SARS-CoV-2 [7]): able to reduce SARS-CoV-2 infectivity; Reduction of RNA concentration (budding) (SARS-CoV-2 [8]): 1 log; RNA concentration per milliliter in supernatant (budding) (SARS-CoV-2 [8]; infected cells without treatment 8646.9): 858.7 RNA concentration per milliliter
Colistin (polymyxin E) [reference compound]	–	0.2-log	–	did not cause any cytotoxicity	–	–	–	–	–	–	–	–	–	–	>100.0 µg/mL	>100.0 µg/mL	Maximal RNA reduction at 100 µg/mL (SARS-CoV-2 [2]; 100 µg/mL, 72 h pi, compared to untreated infected cells, listed as colistin): no activity up to 100 µg/mL
